{"source": "paper PMC10251479", "about": "“PROTAC-Induced Glycogen Synthase Kinase 3β Degradation as a Potential Therapeutic Strategy for Alzheimer’s Disease” (ACS Chemical Neuroscience, 2023)", "key": {"SH-SY5Y cells [1]": {"system": "SH-SY5Y cells", "assay": "Cytotoxicity in SH-SY5Y cells (MTT)", "assay_type": "cell-based, human", "protocol": "Human neuronal SH-SY5Y cells (Sigma-Aldrich, St. Louis, MO, USA) were routinely grown in Dulbecco’s modified Eagle’s Medium supplemented with 10% fetal bovine serum, 2 mM l-glutamine, 50 U/mL penicillin, and 50 μg/mL streptomycin at 37 °C in a humidified incubator with […]\nDetermination of cytotoxicity\nSH-SY5Y cells were seeded in a 96-well plate at 2 × 10^4 cells/well, incubated for 24 h and then […]\nfor 24 h at 37°C in 5% CO2. The cell viability, in terms of mitochondrial metabolic function, was evaluated by the reduction of 3-(4,5-dimethyl-2-thiazolyl)-2,5-diphenyl-2H-tetrazolium bromide […]\n(MTT) to its insoluble formazan. Briefly, the treatment was replaced with MTT in HBSS [0.5 mg/mL] for 2 h at 37°C in 5% CO2. After washing with HBSS, formazan crystals were dissolved in isopropanol. The amount of formazan was measured (570 nm, reference filter 690 nm) using a multilabel plate reader (VICTOR™ X3, PerkinElmer, Waltham, MA, USA). Data are expressed as mean of three independent experiments. […]"}, "SH-SY5Y cells [2]": {"system": "SH-SY5Y cells", "assay": "Neuroprotective effects against Aβ25-35 peptide in SH-SY5Y cells (MTT)", "assay_type": "cell-based, human", "conditions": "0.5 and 1 μM for 2 h, then 3 h with Aβ25–35 10 μM", "protocol": "Data are reported as mean ± SEM of three independent experiments. […]\nmeasured (570 nm, reference filter 690 nm) using a multilabel plate reader (VICTOR™ X3, PerkinElmer, Waltham, MA, USA).[11] Data are reported as mean ± SEM of three independent experiments. The neurotoxicity was expressed as a percentage of control cells and calculated by the formula: 100 – ((absorbance of treated neurons/absorbance of untreated neurons) × 100). […]\nanalysis was performed using one-way ANOVA with the Dunnett post hoc test. Differences were considered significant at p < 0.05. Analyses were performed using GraphPad PRISM software (version 5.0; GraphPad Software, La Jolla, CA, USA) on a Windows platform.\n11. PAMPA BBB permeation studies.\nPrediction of the brain penetration was evaluated using a parallel artificial membrane permeability assay (PAMPA).[12] Ten commercial drugs, PBS at pH 7.4, EtOH, and dodecane were purchased from Sigma- Aldrich, Acros organics, Merck, and Fluka. The porcine polar brain lipid (PBL) was from Avanti Polar Lipids. The donor plate was a 96-well filtrate plate (Multiscreen® IP Sterile Plate PDVF […]\nboth from Millipore. Filter PDVF membrane units (diameter 30 mm, pore size 0.45 µm) from Symta were used to filter the samples. A 96-well plate UV reader (Biteck Instruments, Synergy H4 Hibrid Reader) was used for the UV measurements.\n12 mg of promazine) were dissolved in 1 mL of EtOH. […]"}}}
{"smiles": "O=C(Cn1cc(C2=C(c3ccc(Cl)cc3Cl)C(=O)NC2=O)c2ccccc21)NCCCOCCCCOCCCNc1cccc2c1C(=O)N(C1CCC(=O)NC1=O)C2=O", "note": "(stereo not drawn) [Compound 1]", "values": [{"measurement": "concentration at which cytotoxicity was shown", "setting": "SH-SY5Y cells [1]; MTT, 24 h treatment, 1.25–40 μM", "value": "higher than 20 μM"}, {"measurement": "nontoxic up to (neuronal cells)", "setting": "SH-SY5Y cells [1]; neuronal cells", "value": "up to 20 μM"}, {"measurement": "neurotoxicity induced by Aβ25–35 peptide", "setting": "SH-SY5Y cells [2]", "value": "markedly reduced the neurotoxicity induced by Aβ25–35 peptide"}]}
